Source: ChEMBL document CHEMBL1138998, “A topological function based on spectral moments for predicting affinity toward A3 adenosine receptors” (Bioorg Med Chem Lett, 2006)

Target: T1, Adenosine receptor A3 (Rattus norvegicus, UniProt P28647)
T1 sequence (P28647 whole entry): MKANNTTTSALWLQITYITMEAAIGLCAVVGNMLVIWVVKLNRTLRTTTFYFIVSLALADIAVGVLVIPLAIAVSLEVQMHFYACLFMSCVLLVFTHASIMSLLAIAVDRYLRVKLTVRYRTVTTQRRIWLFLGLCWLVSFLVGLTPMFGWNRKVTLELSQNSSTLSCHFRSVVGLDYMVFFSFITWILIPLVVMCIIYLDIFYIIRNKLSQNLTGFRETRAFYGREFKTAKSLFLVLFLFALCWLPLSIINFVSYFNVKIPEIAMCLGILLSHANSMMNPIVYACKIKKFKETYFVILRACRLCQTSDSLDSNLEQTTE
Experiment: Displacement of [125I]AB-MECA from rat adenosine A3 receptor expressed in CHO cells
Assay type: cell-based

Ki [nM] | SMILES
405 | CCNC(=O)[C@H]1O[C@@H](n2cnc3c(NC(=O)Nc4ccc(S(=O)(=O)Nc5ncccn5)cc4)ncnc32)[C@H](O)[C@@H]1O
155 | CCNC(=O)[C@H]1O[C@@H](n2cnc3c(NC(=O)Nc4ccc(S(=O)(=O)Nc5cc(C)on5)cc4)ncnc32)[C@H](O)[C@@H]1O
54.1 | CCNC(=O)[C@H]1O[C@@H](n2cnc3c(NC(=O)Nc4ccc(S(=O)(=O)Nc5ccccn5)cc4)ncnc32)[C@H](O)[C@@H]1O
